In the assay the test system is pAKT. Description: Target inhibition after single doses: pAKT levels in breast cancer lines. It counts as cell-based, human. Conditions: up to 20 hours after treatment, MDA 468, MDA 231 LM2 and mouse 4T-1 breast cancer lines. As to the method:
MDA231, lung metastatic subline MDA231 LM2 (Minn et al., 2005) and SUM159 human breast cancer cells, as well as the Balb/c tumor-derived mammary cancer lines 4T-1 and 168FARN (Aslakson and Miller, 1992), were propagated as previously described. All other cell lines were obtained from and were cultured according to the protocols of ATCC. For treatment with inhibitors, cells were synchronized without serum overnight and then supplemented with culture medium containing the inhibitor(s). For experiments with doxycycline-inducible shRNAs, 500 ng/ml of doxycycline (Sigma) was added to the medium and experiments performed 48 h later. Cell viability assays, cell cycle and cell death measurements were performed at 0.5% FCS in order to avoid masking effects of growth factors present under full-serum conditions.
Cells for Western Blotting and ELISA were lysed with RIPA buffer. […]
The present inventors applied single doses of COMPOUND A, a dual PI3K and mTOR inhibitor, and analyzed target inhibition and potential signaling pathway crosstalks after 2, 4, 8 and 20 h hours of treatment. […] While RAD001 readily activated JAK2 starting at 4 hours of treatment, they observed a later response with BKM120 treatment starting at 8 hours after adding the compound. […]

Consider `Cn1c(=O)n(-c2ccc(C(C)(C)C#N)cc2)c2c3cc(-c4cnc5ccccc5c4)ccc3ncc21` [COMPOUND A, 2-methyl-2-[4-(3-methyl-2-oxo-8-quinolin-3-yl-2,3-dihydro-imidazo[4,5-c]quinolin-1-yl)-phenyl]-propionitrile], for which the pAKT levels result is listed as “reduced”.

The values above are taken from US20150224190A1, “Combination of a phosphoinositide 3-kinase inhibitor and an inhibitor of the IL-8/CXCR interaction” (priority 2012, published 2015).
